We go through 2 compounds from patent US20200390909A1, “DRUG FRAGMENT IMAGING AGENT CONJUGATES” (The Board of Trustees of the Leland Stanford Junior …, priority 2018, published 2020).

In one experiment the test system is breast tumor. Put plainly: NIRF imaging of breast tumor after oral gavage of systemic functional dye. Format: in vivo, mouse. The procedure:
FIG. 6A-6D. Highlighting a breast tumor following oral administration of an exemplary systemic functional dye (Compound (8), SU780). FIG. 6A NIRF imaging of the intact mouse 24 h post oral gavage of SU780.
A wild type with an unidentified spontaneous flank tumor received an oral gavage of Compound (8) (SU780) (0.4 mg/kg). The following day, the animal was sacrificed, and the tumor was subjected to NIRF imaging.
Shown in FIG. 6 is the highlighting of a breast tumor following oral administration of the systemic functional dye Compound (8) (SU780).

For experiment [1] the following is noted: systemically administered, clinical optical contrast agent; cited from earlier work.

Molecules are shown by their SMILES.

For `CCCN1/C(=C/C=C2\CCCC(/C=C/C3=[N+](CCC)c4ccccc4C3(C)C)=C2Nc2ccc(NC(=O)CN3CCOCC3)cc2)C(C)(C)c2ccccc21` [Compound (8)], the “localisation in H&E processed tumor section” value with breast tumor (after tissue processing for H&E) is given as “highlights mainly epithelial cancer cells”. Besides, the “fluorescence of residual tumor tissue in resection bed (image-guided resection)” value with breast tumor (after tumor resection, oral gavage) is on record as “residual tumor tissue was fluorescing in the resection bed”. In addition, in the experiment with breast tumor (mouse with spontaneous flank (breast) tumor, oral gavage 0.4 mg/kg, following day, resected tumor), the “highlighting of tumor by NIRF imaging after oral administration” value is recorded as “highlights the tumor”. Besides, the “NIRF signal at tumor margin / tumor infiltration into normal tissue (tissue section)” value is reported as “perfect correlation with tumor infiltration into normal tissues” with breast tumor (oral gavage 0.4 mg/kg, 0.4 mg/kg) and “highlights the finger-like infiltration of the breast cancer cells into normal mammary fat pad” in the experiment on breast tumor (oral gavage 0.4 mg/kg, listed as SU780, 0.4 mg/kg).
Regarding `CC1(C)C(/C=C/C2=C(Oc3ccc(C[C@H](NC(=O)c4ccc(NCc5cnc6nc(N)[nH]c(=O)c6n5)cc4)C(=O)[O-])cc3)C(=C/C=C3\N(CCCCS(=O)(=O)[O-])c4ccc(S(=O)(=O)[O-])cc4C3(C)C)/CCC2)=[N+](CCCCS(=O)(=O)[O-])c2ccc(S(=O)(=O)[O-])cc21.[H+].[H+].[H+].[H+]` [OTL38], the TBR in experiment [1] is 4.4.
